# Measurements as given in patent publication US20130109734A1 (Metabolex, Inc., priority 2010, published 2013).
# Molecular target: T1, human GPR120 (Homo sapiens, UniProt Q5NUL3)
# T1 construct: host or cells: HEK293 cells co-expressing Gqi5
# T1 sequence (Q5NUL3 1-361): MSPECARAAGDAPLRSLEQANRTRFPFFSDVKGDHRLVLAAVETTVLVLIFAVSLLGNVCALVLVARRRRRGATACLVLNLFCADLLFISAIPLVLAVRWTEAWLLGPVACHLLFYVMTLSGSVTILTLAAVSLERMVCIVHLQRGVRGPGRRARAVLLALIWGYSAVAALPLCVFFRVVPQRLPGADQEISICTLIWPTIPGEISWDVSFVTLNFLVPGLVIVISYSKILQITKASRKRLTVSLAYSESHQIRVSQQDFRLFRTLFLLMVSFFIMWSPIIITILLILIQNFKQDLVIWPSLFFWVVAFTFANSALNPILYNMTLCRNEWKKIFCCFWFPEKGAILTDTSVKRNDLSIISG
# Experiment: Intracellular Ca2+ assay in human GPR120 stable cell line (HEK293 co-expressing Gqi5), Flexstation
# Assay type: cell-based
# Conditions: % activity at 5 μM compared to the maximal activity of GW9508 at 6.7 μM (=100%); human GPR120 cells, Ca2+ fluorescence
# Method: Human GPR120 stable cell line was purchased from Multispan Inc (26219 Eden Landing Road, Hayward, Calif. 94545). This GPR120 cell line was generated in HEK293 cells co-expressing Gqi5. In this cell line, the Flag epitope tag (DYKDDDDK) was fused to the amino terminus of human GPR120 protein.
# The concentration of intracellular Ca^2+ was measured as described below. Human GPR120 cells were plated in 96 well plates (Poly-D-Lysine coated black/clear Plate, Greiner Bio-One) at 70,000 cells per well and cultured overnight in conditions of 37° C. and 5% CO2. A Ca^2+assay dye stock solution was prepared by adding 10 mL of assay buffer (HBSS/20 mM HEPES, pH 7.4) to FLIPR Calcium 4 Assay Bulk Kit (Molecular Devices). The 10 mL of Ca^2+ assay dye solution was prepared by further diluting 0.5 mL of Ca^2+ assay dye stock solution with 10 mL of assay buffer. The medium of the cells was removed and immediately 100 μL of the Ca^2+ assay dye solution was dispensed into each well followed by incubation at 37° C. and 5% CO2 for 50 minutes to incorporate the Ca^2+ dye into the cells. The cell plate was then placed in the Flexstation (Molecular Devices) for 20 minutes at 37° C. Compounds were dissolved in 100% DMSO and diluted to desired concentrations with assay buffer and placed in the Flexstation simultaneously with the cell plate for 20 minute incubation at 37° C. prior to reading. Fluorescence intensity was measured immediately following compound addition (25 μL/well) on the Flexstation at an excitation wavelength of 485 nm and an emission wavelength of 525 with 515 nm auto cutoff. The resulting increase in fluorescence intensities corresponds to increases in intracellular Ca^2+ levels.
# Compounds were dissolved in 100% DMSO to a concentration of 20 mM to provide stock solutions. To determine activity against human GPR120, compounds were added with human GPR120 stably expressing cells (described above), at eight desired concentrations ranging from 0.00001 to 20 μM, in 96 well plates and fluorescence intensities were measured for 90 seconds with 2-second intervals. An EC50 value (concentration of the GPR120 agonist where 50% of the agonist's maximal activity is observed) was calculated using the changes (Max−Min) of fluorescence intensity.
# To determine percent activity for a tested compound, the fluorescence intensity value obtained at a particular concentration were compared to the maximal fluorescence intensity value obtained for reference compound GW9508 (4-[[(3-phenoxyphenyl)methyl]amino]benzene propanoic acid; British Journal of Pharmacology 2006 148, 619-628) or the compound of Example 25. When GW9508 was used as the reference compound, the maximal activity of GW9508 at 6.7 μM was designated as 100% activity. When the compound of Example 25 was used as the reference compound, the maximal activity of the compound of Example 25 at 2.5 μM was designated as 100% activity. Typically, the GW9508 activity reached a maximum at a concentration of approximately 6.7 μM and typically the compound of Example 25 reached a maximum activity at approximately 2.5 μM.
row,% Activity (GW9508 Reference Compound) [%],SMILES
1,117.58,"CC1(C)Cc2cc(Cl)cc(COc3ccc(SCC(=O)O)cc3)c2O1 [Example 59, 2-((4-((5-chloro-2,2-dimethyl-2,3-dihydrobenzofuran-7-yl)methoxy)phenyl)thio)-acetic acid]"
2,95.03,"CC1(C)Cc2cc(F)cc(COc3ccc(CCC(=O)O)c4c3CCC4)c2O1 [Example 63, 3-(7-((5-fluoro-2,2-dimethyl-2,3-dihydrobenzofuran-7-yl)methoxy)-2,3-dihydro-1H-inden-4-yl)propanoic acid]"
3,141.04,"C[C@H](Cc1ccc(OCc2cc(F)cc3c2OC(C)(C)C3)cc1)C(=O)O [Example 65, (R)-3-(4-((5-fluoro-2,2-dimethyl-2,3-dihydrobenzofuran-7-yl)methoxy)phenyl)-2-methylpropanoic acid]"
4,141.82,"CC(Cc1ccc(NCc2cc(F)cc3c2OC(C)(C)C3)cc1)C(=O)O (stereo not drawn) [Example 67, 3-(4-(((5-fluoro-2,2-dimethyl-2,3-dihydrobenzofuran-7-yl)methyl)amino)phenyl)-2-methylpropanoic acid]"
5,69.03,"CC(Cc1ccc(NC(=O)c2cc(F)cc3c2OC(C)(C)C3)cc1)C(=O)O (stereo not drawn) [Example 68, 3-(4-(5-fluoro-2,2-dimethyl-2,3-dihydrobenzofuran-7-carboxamido)phenyl)-2-methylpropanoic acid]"
6,78.46,"CCOC(Cc1cc(F)c(OCc2cc(F)cc3c2OC(C)(C)C3)c(F)c1)C(=O)O (stereo not drawn) [Example 69, 3-(3,5-difluoro-4-((5-fluoro-2,2-dimethyl-2,3-dihydrobenzofuran-7-yl)methoxy)phenyl)-2-ethoxypropanoic acid]"
7,133.8,"CC1(C)Cc2cc(Cl)cc(COc3ccc(CCC(=O)O)c(-c4ccccc4)c3)c2O1 [Example 71, 3-(5-((5-chloro-2,2-dimethyl-2,3-dihydrobenzofuran-7-yl)methoxy)-[1,1′-biphenyl]-2-yl)propanoic acid]"
8,114.85,"CCCc1cc(OCc2cc(Cl)cc3c2OC(C)(C)C3)c(F)cc1CCC(=O)O [Example 73, 3-(4-((5-chloro-2,2-dimethyl-2,3-dihydrobenzofuran-7-yl)methoxy)-5-fluoro-2-propylphenyl)propanoic acid]"
9,109.62,"CC(Cc1ccc(OCc2cc(Cl)cc3c2OC(C)(C)C3=O)c(F)c1)C(=O)O (stereo not drawn) [Example 77, 3-(4-((5-chloro-2,2-dimethyl-3-oxo-2,3-dihydrobenzofuran-7-yl)methoxy)-3-fluorophenyl)-2-methylpropanoic acid]"
10,3.85,"CC(Cc1ccc(OCc2cc(Cl)cc3c2OC(C)(C)C3=O)c(C(F)(F)F)c1)C(=O)O (stereo not drawn) [Example 79, 3-(4-((5-chloro-2,2-dimethyl-3-oxo-2,3-dihydrobenzofuran-7-yl)methoxy)-3-(trifluoromethyl)phenyl)-2-methylpropanoic acid]"
11,86.25,"CC(Cc1ccc(OCc2cc(Cl)cc3c2OC(C)(C)C3O)c(F)c1)C(=O)O (stereo not drawn) [Example 80, 3-(4-((5-chloro-3-hydroxy-2,2-dimethyl-2,3-dihydrobenzofuran-7-yl)methoxy)-3-fluorophenyl)-2-methylpropanoic acid]"
12,5.23,"COc1cccc(-c2cc(COc3ccc(CC(C)C(=O)O)cc3)c3c(c2)CC(C)(C)O3)c1 (stereo not drawn) [Example 86, 3-(4-((5-(3-methoxyphenyl)-2,2-dimethyl-2,3-dihydrobenzofuran-7-yl)methoxy)phenyl)-2-methylpropanoic acid]"
13,118.92,"CC(Cc1ccc(OCc2cc(Cl)cc3c2OC(C)(C)C3)c(CN(C)C)c1)C(=O)O (stereo not drawn) [Example 88, 3-(4-((5-chloro-2,2-dimethyl-2,3-dihydrobenzofuran-7-yl)methoxy)-3-((dimethylamino)methyl)phenyl)-2-methylpropanoic acid]"
14,82.28,"CCN(CC)c1cc(COc2ccc(CC(C)C(=O)O)cc2)c2c(c1)CC(C)(C)O2 (stereo not drawn) [Example 89, 3-(4-((5-(diethylamino)-2,2-dimethyl-2,3-dihydrobenzofuran-7-yl)methoxy)phenyl)-2-methylpropanoic acid]"
15,75.86,"CC(Cc1ccc(OCc2cc(-n3cnnn3)cc3c2OC(C)(C)C3)cc1)C(=O)O (stereo not drawn) [Example 90, 3-(4-((2,2-dimethyl-5-(1H-tetrazol-1-yl)-2,3-dihydrobenzofuran-7-yl)methoxy)phenyl)-2-methylpropanoic acid]"
16,121.29,"CC(Cc1ccc(OCc2ccc(F)c3c2CC(C)(C)O3)cc1)C(=O)O (stereo not drawn) [Example 91, 3-(4-((7-fluoro-2,2-dimethyl-2,3-dihydrobenzofuran-4-yl)methoxy)phenyl)-2-methylpropanoic acid]"
17,98.45,"CC1(C)Cc2c(COc3ccc4c(c3)CCC4CC(=O)O)ccc(F)c2O1 (stereo not drawn) [Example 94, 2-(5-((7-fluoro-2,2-dimethyl-2,3-dihydrobenzofuran-4-yl)methoxy)-2,3-dihydro-1H-inden-1-yl)acetic acid]"
18,124.82,"CC(Cc1ccc(OCc2c(F)ccc3c2CC(C)(C)O3)cc1)C(=O)O (stereo not drawn) [Example 96, 3-(4-((5-fluoro-2,2-dimethyl-2,3-dihydrobenzofuran-4-yl)methoxy)phenyl)-2-methylpropanoic acid]"
19,101.53,"CC1(C)Cc2c(ccc(F)c2COc2c(F)cc(C3CC3C(=O)O)cc2F)O1 (stereo not drawn) [Example 99, 2-(3,5-difluoro-4-((5-fluoro-2,2-dimethyl-2,3-dihydrobenzofuran-4-yl)methoxy)phenyl)cyclopropanecarboxylic acid]"
20,98.96,"Cc1cc(OCC(=O)O)ccc1OCc1cc(Cl)cc2c1OC(C)(C)C2 [Example 103, 2-(4-((5-chloro-2,2-dimethyl-2,3-dihydrobenzofuran-7-yl)methoxy)-3-methylphenoxy)acetic acid]"
21,154.51,"CC(CC(=O)O)c1cc(F)c(OCc2cc(Cl)cc3c2OC(C)(C)C3)c(F)c1 (stereo not drawn) [Example 106, 3-(4-((5-chloro-2,2-dimethyl-2,3-dihydrobenzofuran-7-yl)methoxy)-3,5-difluorophenyl)butanoic acid]"
22,143.85,"COc1cc(COc2ccc(CC(C)C(=O)O)cc2)c2c(c1)CC(C)(C)O2 (stereo not drawn) [Example 108, 3-(4-((5-methoxy-2,2-dimethyl-2,3-dihydrobenzofuran-7-yl)methoxy)phenyl)-2-methylpropanoic acid]"
23,72.36,"CC(Cc1cc(F)c(OCc2cc(Cl)cc3c2OC(C)C3(C)C)c(F)c1)C(=O)O (stereo not drawn) [Example 109, 3-(4-((5-chloro-2,3,3-trimethyl-2,3-dihydrobenzofuran-7-yl)methoxy)-3,5-difluorophenyl)-2-methylpropanoic acid]"

row,SMILES,% Activity (GW9508 Reference Compound) [%]
1,"CC1(C)Cc2cc(F)cc(CCc3ccc(OCC(=O)O)cc3)c2O1 [Example 70, 2-(4-(2-(5-fluoro-2,2-dimethyl-2,3-dihydrobenzofuran-7-yl)ethyl)phenoxy)acetic acid]",117.72
2,"CC(Cc1ccc(OCc2cc(-c3ccc(Cl)cc3)cc3c2OC(C)(C)C3)cc1)C(=O)O (stereo not drawn) [Example 82, 3-(4-((5-(4-chlorophenyl)-2,2-dimethyl-2,3-dihydrobenzofuran-7-yl)methoxy)phenyl)-2-methylpropanoic acid]",24

# Same assay, conditions: human GPR120 stably expressing cells, Ca2+ fluorescence (Max-Min), eight concentrations 0.00001 to 20 μM
row,EC50 [µM],SMILES
1,> 10,"CC(Cc1ccc(NC(=O)c2cc(F)cc3c2OC(C)(C)C3)cc1)C(=O)O (stereo not drawn) [Example 68, 3-(4-(5-fluoro-2,2-dimethyl-2,3-dihydrobenzofuran-7-carboxamido)phenyl)-2-methylpropanoic acid]"
2,> 10,"CCOC(Cc1cc(F)c(OCc2cc(F)cc3c2OC(C)(C)C3)c(F)c1)C(=O)O (stereo not drawn) [Example 69, 3-(3,5-difluoro-4-((5-fluoro-2,2-dimethyl-2,3-dihydrobenzofuran-7-yl)methoxy)phenyl)-2-ethoxypropanoic acid]"
